Laboratory results reported in article PMC12207590, “Substrate Specificity of the Organic Cation Transporters MATE1 and MATE2K and Functional Overlap with OCT1 and OCT2” (Journal of Medicinal Chemistry, 2025).
Like-named read-outs stand apart in the source and are kept apart here.

Columns and labels:
MATE1 [1] = target: T1, MATE1 (Homo sapiens, UniProt Q96FL8); test: Uptake ratio in MATE1-overexpressing HEK293 cells vs empty vector (2.5 μM, 1 min, HPLC-MS/MS); type: cell-based
T1 sequence (Q96FL8 1-570): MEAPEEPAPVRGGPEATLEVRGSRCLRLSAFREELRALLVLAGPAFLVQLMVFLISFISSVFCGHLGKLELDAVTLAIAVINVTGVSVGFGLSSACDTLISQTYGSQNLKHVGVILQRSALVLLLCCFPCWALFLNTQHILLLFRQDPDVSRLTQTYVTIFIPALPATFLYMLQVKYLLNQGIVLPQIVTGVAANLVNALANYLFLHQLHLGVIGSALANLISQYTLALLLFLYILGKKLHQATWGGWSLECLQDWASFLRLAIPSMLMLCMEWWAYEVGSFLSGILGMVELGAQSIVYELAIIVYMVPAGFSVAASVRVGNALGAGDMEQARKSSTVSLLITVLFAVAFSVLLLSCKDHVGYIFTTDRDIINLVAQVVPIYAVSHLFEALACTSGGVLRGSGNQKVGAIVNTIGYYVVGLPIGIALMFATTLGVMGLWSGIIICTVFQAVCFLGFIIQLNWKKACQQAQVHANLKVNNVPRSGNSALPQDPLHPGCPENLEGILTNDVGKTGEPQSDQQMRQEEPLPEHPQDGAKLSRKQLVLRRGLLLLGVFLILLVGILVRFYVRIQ

MATE2K [2] = target: T2, MATE2K (Homo sapiens, UniProt Q86VL8); test: Uptake ratio in MATE2K-overexpressing HEK293 cells vs empty vector (2.5 μM, 1 min, HPLC-MS/MS); type: cell-based
[3] = test system: MATE1, MATE2K, OCT1, OCT2; test: Substrate specificity and overlap among the four transporters (ratio cutoff 2); type: cell-based, human; settings: transport ratio cutoff of 2
MATE2K [4] = target: T2, MATE2K; test: Concentration-dependent uptake (Michaelis-Menten) via MATE2K in HEK293 cells; settings: for Km: read-out: MATE2K KM
MATE1 [5] = target: T1, MATE1; test: Concentration-dependent uptake (Michaelis-Menten) via MATE1 in HEK293 cells; settings: for Km: read-out: MATE1 KM
[6] = cited from earlier work
hCMEC [7] = test: TS MDAI hCMEC (Table S2); type: cell-based, human; parameters: scale not given here; settings: Table S2
hCMEC [8] = test: TS DPH hCMEC (Table S2); type: cell-based, human; parameters: scale not given here; settings: Table S2
[9] = fold uptake over empty vector, 2.5 μM, 1 min
[10] = uptake ratio MATE1-overexpressing vs empty-vector HEK293 cells, 2.5 μM, 1 min, mean
[11] = uptake ratio MATE2K-overexpressing vs empty-vector HEK293 cells, 2.5 μM, 1 min, mean

T2 sequence (Q86VL8 1-566 isoform Q86VL8-3): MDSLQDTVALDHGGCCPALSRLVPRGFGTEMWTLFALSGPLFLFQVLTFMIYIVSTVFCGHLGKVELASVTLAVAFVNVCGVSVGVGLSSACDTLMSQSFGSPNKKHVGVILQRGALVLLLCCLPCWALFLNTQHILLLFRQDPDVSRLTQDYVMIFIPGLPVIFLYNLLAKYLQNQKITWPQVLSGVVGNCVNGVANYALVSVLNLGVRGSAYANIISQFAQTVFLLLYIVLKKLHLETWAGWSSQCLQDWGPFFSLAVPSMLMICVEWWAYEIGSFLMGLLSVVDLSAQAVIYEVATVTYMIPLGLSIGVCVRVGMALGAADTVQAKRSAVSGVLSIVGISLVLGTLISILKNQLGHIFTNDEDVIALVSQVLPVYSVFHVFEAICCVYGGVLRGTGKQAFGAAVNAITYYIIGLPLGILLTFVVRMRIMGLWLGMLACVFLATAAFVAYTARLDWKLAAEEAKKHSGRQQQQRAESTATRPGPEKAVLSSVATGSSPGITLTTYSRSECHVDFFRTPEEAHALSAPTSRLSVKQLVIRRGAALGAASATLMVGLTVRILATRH

COc1ccc2c3c1O[C@H]1C(=O)CC[C@@]4(O)[C@@H](C2)NCC[C@]314 [Noroxycodone]
MATE1 ratio (MATE1 [1]): 1.39 | MATE2K ratio (MATE2K [2]): 1.13 | Substrate specificity among MATE1, MATE2K, OCT1, OCT2 [3]: OCT1 only

CC(C)NCC(O)c1cc(O)cc(O)c1 (stereo not shown) [Orciprenaline]
MATE1 ratio (MATE1 [1]; [9]): 34.88 | MATE2K ratio (MATE2K [2]; [9]): 23.10 | Substrate specificity among MATE1, MATE2K, OCT1, OCT2 [3]: All four transporters

Cc1ncc(CO)c(CN)c1O [Pyridoxamine]
MATE2K Vmax (MATE2K [4]; HEK293, 1 min, net uptake): 989.5 pmol × mg protein^–1 × min^–1 | Km (MATE2K [4]; HEK293, 1 min, net uptake): 1550 µM | MATE1 ratio (MATE1 [1]; [9]): 2.68 | MATE1 (MATE1 [1]; [10]): 2.68 | MATE2K ratio (MATE2K [2]; [9]): 1.36 | MATE2 (MATE2K [2]; [11]): 1.36 | MATE1 Vmax (MATE1 [5]; HEK293, 1 min, net uptake): 5442 pmol × mg protein^–1 × min^–1 | Km (MATE1 [5]; HEK293, 1 min, net uptake): 1690 µM | Substrate specificity among MATE1, MATE2K, OCT1, OCT2 [3]: MATE1 only

CNC(=C[N+](=O)[O-])NCCSCc1ccc(CN(C)C)o1 [Ranitidine]
eliminated unchanged via the kidneys ([6]; human): more than 70% | TS MDAI hCMEC (hCMEC [7]): 1.24 | MATE1 ratio (MATE1 [1]; [9]): 18.91 | MATE1 ratio (MATE1 [1]; fold uptake over empty vector, 2.5 μM, 1 min, listed as ranitidine): above 2 | MATE1 (MATE1 [1]; [10]): 18.91 | MATE2K ratio (MATE2K [2]; [9]): 8.62 | MATE2 (MATE2K [2]; [11]): 8.62 | TS DPH hCMEC (hCMEC [8]): 1.26

C#CCN[C@@H]1CCc2ccccc21 [Rasagiline]
TS MDAI hCMEC (hCMEC [7]): 0.51 | MATE2K Vmax (MATE2K [4]; HEK293, 1 min, net uptake): linear | MATE1 ratio (MATE1 [1]; [9]): 1.18 | MATE1 (MATE1 [1]; [10]): 1.18 | MATE2K ratio (MATE2K [2]; [9]): 2.16 | MATE2 (MATE2K [2]; [11]): 2.16 | MATE1 Vmax (MATE1 [5]; HEK293, 1 min, net uptake): 194 pmol × mg protein^–1 × min^–1 | Km (MATE1 [5]; HEK293, 1 min, net uptake): 167 µM | TS DPH hCMEC (hCMEC [8]): 0.54 | Substrate specificity among MATE1, MATE2K, OCT1, OCT2 [3]: specific for only OCT2 and MATE2K

N[C@@H](CC(=O)N1CCn2c(nnc2C(F)(F)F)C1)Cc1cc(F)c(F)cc1F [Sitagliptin]
eliminated unchanged via the kidneys ([6]; human): more than 70% | MATE1 ratio (MATE1 [1]; [9]): 4.17 | MATE1 ratio (MATE1 [1]; fold uptake over empty vector, 2.5 μM, 1 min, listed as sitagliptin): above 2 | MATE1 (MATE1 [1]; [10]): 4.17 | MATE2K ratio (MATE2K [2]; [9]): 2.77 | MATE2 (MATE2K [2]; [11]): 2.77

CC(C)NCC(O)c1ccc(NS(C)(=O)=O)cc1 (stereo not shown) [Sotalol]
eliminated unchanged via the kidneys ([6]; human): more than 70% | MATE1 ratio (MATE1 [1]; [9]): 19.70 | MATE1 ratio (MATE1 [1]; fold uptake over empty vector, 2.5 μM, 1 min, listed as sotalol): above 2 | MATE1 (MATE1 [1]; [10]): 19.7 | MATE2K ratio (MATE2K [2]; [9]): 1.62 | MATE2 (MATE2K [2]; [11]): 1.62

CCN1CCCC1CNC(=O)c1cc(S(N)(=O)=O)ccc1OC (stereo not shown) [Sulpiride]
eliminated unchanged via the kidneys ([6]; in vivo): more than 70% | MATE2K Vmax (MATE2K [4]): 1025 pmol × mg protein^–1 × min^–1 | Km (MATE2K [4]; HEK293, 1 min, net uptake): 22.8 µM | MATE1 Vmax (MATE1 [5]): 851 pmol × mg protein^–1 × min^–1 | Km (MATE1 [5]; HEK293, 1 min, net uptake): 16 µM

Cc1ncc(C[n+]2csc(CCO)c2C)c(N)n1 [Thiamine]
MATE2K Vmax (MATE2K [4]; HEK293, 1 min, net uptake): 109.2 pmol × mg protein^–1 × min^–1 | Km (MATE2K [4]; HEK293, 1 min, net uptake): 17.3 µM | MATE1 ratio in this study (MATE1 [1]; Table S1, 2.5 μM, 1 min): 33.42 | MATE1 (MATE1 [1]; [10]): 33.42 | MATE2K ratio in this study (MATE2K [2]; Table S1, 2.5 μM, 1 min): 10.63 | MATE2 (MATE2K [2]; [11]): 10.63 | MATE1 Vmax (MATE1 [5]; HEK293, 1 min, net uptake): 599 pmol × mg protein^–1 × min^–1 | Km (MATE1 [5]; HEK293, 1 min, net uptake): 17.2 µM | Substrate specificity among MATE1, MATE2K, OCT1, OCT2 [3]: All four transporters

CC[C@@]1(O)C(=O)OCc2c1cc1n(c2=O)Cc2cc3c(CN(C)C)c(O)ccc3nc2-1 [Topotecan]
MATE1 ratio in this study (MATE1 [1]; Table S1, 2.5 μM, 1 min): 2.53 | MATE1 (MATE1 [1]; [10]): 2.53 | MATE2K ratio in this study (MATE2K [2]; Table S1, 2.5 μM, 1 min): 1.61 | MATE2 (MATE2K [2]; [11]): 1.61 | Substrate specificity among MATE1, MATE2K, OCT1, OCT2 [3]: MATE1 only

O=C(O[C@H]1C[C@H]2CC[C@@H](C1)[N+]21CCCC1)C(O)(c1ccccc1)c1ccccc1 [Trospium]
eliminated unchanged via the kidneys ([6]; human): more than 70% | MATE1 (MATE1 [1]): 21.28 | MATE1 ratio (MATE1 [1]): above 2 | MATE1 ratio in this study (MATE1 [1]): 21.28 | MATE2 (MATE2K [2]): 5.18 | MATE2K ratio in this study (MATE2K [2]): 5.18

Nc1ccn([C@H]2CC[C@@H](CO)O2)c(=O)n1 [Zalcitabine]
eliminated unchanged via the kidneys ([6]; human): more than 70% | MATE2K Vmax (MATE2K [4]; HEK293, 1 min, net uptake): linear | MATE1 ratio in this study (MATE1 [1]; Table S1, 2.5 μM, 1 min): 12.98 | MATE1 ratio (MATE1 [1]; [9]): above 2 | MATE1 (MATE1 [1]; [10]): 12.98 | MATE2K ratio in this study (MATE2K [2]; Table S1, 2.5 μM, 1 min): 1.22 | MATE2 (MATE2K [2]; [11]): 1.22 | MATE1 Vmax (MATE1 [5]; HEK293, 1 min, net uptake): 10,171 pmol × mg protein^–1 × min^–1 | Km (MATE1 [5]; HEK293, 1 min, net uptake): 1560 µM

COc1cc(Cc2cnc(N)nc2N)cc(OC)c1OC [trimethoprim]
MATE1 (MATE1 [1]; [10]): 1.52 | MATE2 (MATE2K [2]; [11]): 1.23 | Substrate specificity among MATE1, MATE2K, OCT1, OCT2 [3]: OCT1 only
